4 compounds from patent US7897778B2, “Benzamide compounds” (AstraZeneca, priority 2004, dated 2011) can be followed below.

In assay [1] the target is T1, recombinant human HDAC1 (Homo sapiens, UniProt Q13547).
T1 construct: FLAG (C); made in house; host or cells: Hi5 insect cells
The experiment in a line: In vitro enzyme assay of recombinant HDAC1. Type of assay: biochemical. To be noted: recombinant human HDAC1 produced in Hi5 insect cells; acetylated histone H4 peptide, Fluor de Lys; read-out: Test (a) IC50. As to the method:
(a) In Vitro Enzyme Assay of recombinant HDAC1
HDAC inhibitors were screened against recombinant human HDAC1 produced in Hi5 insect cells. The enzyme was cloned with a FLAG tag at the C-terminal of the gene and affinity purified using Anti-FLAG M2 agarose from SIGMA (A2220).
The deacetylase assays were carried out in a 50 μl reaction. HDAC1 (75 ng of enzyme) diluted in 15 μl of reaction buffer (25 mM Tris HCl (pH 8), 137 mM NaCl, 2.7 mM KCl, 1 mM MgCl2) was mixed with either buffer alone (10 μl) or buffer containing compound (10 μl) for 30 minutes at ambient temperature. The 25 μM acetylated histone H4 peptide (KI 174 Biomol) diluted in 25 μl of buffer was then added to the reaction and incubated for one hour at ambient temperature. The reaction was stopped by addition of an equal volume (50 μl) Fluor de Lys developer (Biomol) containing Trichostatin A at 2 μM. The reaction was allowed to develop for 30 minutes at ambient temperature and then fluorescence measured at an excitation wavelength of 360 nm and an emission wavelength of 465 nm. The IC50 values for HDAC enzyme inhibitors were determined by performing dose response curves with individual compounds and determining the concentration of inhibitor producing fifty percent decrease in the maximal signal (diluent control).

The subject of assay [2] is HCT116 cells. The experiment in a line: In vitro assay of inhibition of proliferation in whole cells (MTS). To be noted: Homo sapiens, HCT-116, 72 hours treatment, read-out: Test (b) IC50. The format is cell-based. As to the method:
(b) In Vitro Assay of Inhibition of Proliferation in Whole Cells
Inhibition of proliferation in whole cells was assayed using the Promega cell titer 96 aqueous proliferation assay (Promega #G5421). The HCT116 cells were seeded in 96 well plates at 1×10^3 cells/well, and allowed to adhere overnight. They were treated with inhibitors for 72 hours. The 20 μl of the tetrazolium dye MTS was added to each well and the plates were reincubated for 3 hours. Absorbance was then measured on a 96 well plate reader at […]. The IC50 values for HDAC inhibitors were determined by performing dose response curves with individual compounds and determining the concentration of inhibitor producing fifty percent decrease in maximal signal (diluent control).

T1 sequence (Q13547 whole entry): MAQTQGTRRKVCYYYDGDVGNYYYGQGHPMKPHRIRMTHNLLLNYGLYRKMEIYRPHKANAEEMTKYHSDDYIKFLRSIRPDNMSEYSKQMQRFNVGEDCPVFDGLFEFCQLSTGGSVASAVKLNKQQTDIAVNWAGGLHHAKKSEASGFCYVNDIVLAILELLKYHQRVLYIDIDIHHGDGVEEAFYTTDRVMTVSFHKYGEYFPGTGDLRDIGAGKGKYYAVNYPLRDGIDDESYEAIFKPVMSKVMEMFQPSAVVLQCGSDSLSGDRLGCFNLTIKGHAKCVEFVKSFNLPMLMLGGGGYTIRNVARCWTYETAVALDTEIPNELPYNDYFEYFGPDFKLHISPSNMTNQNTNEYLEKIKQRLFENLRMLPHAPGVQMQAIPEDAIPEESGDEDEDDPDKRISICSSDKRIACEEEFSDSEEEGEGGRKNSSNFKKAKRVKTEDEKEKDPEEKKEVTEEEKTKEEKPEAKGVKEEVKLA

On to `N#Cc1cc(CN2CCC(c3ccccn3)C2)cnc1-c1ccc(C(=O)Nc2ccccc2N)cc1` (centres unmarked) [2 (10), N-(2-aminophenyl)-4-{3-cyano-5-[(3-pyridin-2-ylpyrrolidin-1-yl)methyl]pyridin-2-yl}benzamide], for which the values for the IC50 in assay [1] and in assay [2] were 0.003 µM and 0.211 µM, respectively.
As for `N#Cc1cccnc1-c1ccc(C(=O)Nc2ccccc2N)cc1` [Example 1, N-(2-aminophenyl)-4-(3-cyanopyridin-2-yl)benzamide], the IC50 (commonly the concentration that inhibits the measured activity by half) in assay [1] is 0.013 µM; in assay [2] it was 0.289 µM.
`CC(C)N(C)Cc1cnc(-c2ccc(C(=O)Nc3ccccc3N)cc2)c(C#N)c1` [5 (15), N-(2-aminophenyl)-4-(3-cyano-5-{[isopropyl(methyl)amino]methyl}pyridin-2-yl)benzamide]: the results for the IC50 in assay [1] and in assay [2] were 0.012 µM and 0.287 µM, respectively.
As for `C[C@@H]1CC[C@@H](C)N1Cc1cnc(-c2ccc(C(=O)Nc3ccccc3N)cc2)c(C#N)c1` [2 (12), N-(2-aminophenyl)-4-(3-cyano-5-{[(2R,5R)-2,5-dimethylpyrrolidin-1-yl]methyl}pyridin-2-yl)benzamide], the 50% inhibitory concentration (IC50) stood at 0.006 µM in assay [1] and 0.218 µM in assay [2].
